Results as given in patent US20110319352A1, “Compounds That Bind Oxysterol Binding Proteins, and Methods of Use Thereof” (President and Fellows of Harvard College, priority 2008, published 2011).
Like-named read-outs stand apart in the source and are kept apart here.

Test system: HCT-116 p21−/− shNT and shOSBP cells
Test: CRAM cytotoxicity after shRNA knockdown of OSBP, HCT-116 p21−/−
Format: cell-based
From the text: FIG. 17 depicts CRAM cytotoxicity in shRNA OSBP knockdown cell lines. A: Dose curves from a representative experiment. B: GI50 values of CRAMs and control compounds in HCT-116 p21−/− shNT and shOSBP cells and densitometric analysis of OSBP-levels. shNT=non-targeting shRNA, shOSBP=OSBP-targeting shRNA; * P=0.0006 (n=4), ** P=0.0002 (n=3), *** P=0.0003 (n=3), and **** P≦0.0001 (n=7) compared to shNT-treated cells.
To determine whether the cytotoxicity of CRAMs depends on the amount of OSBP in cells, the effects of shRNA knockdown of OSBP on the growth inhibitory activity of CRAMs was measured. Treatment of HCT-116 p21^−/− cells with shRNA targeted to OSBP [24] caused an 84% reduction in the level of OSBP as measured by western blot (FIG. 17B, bottom right).

## COc1ccc(C(=O)O[C@H]2[C@H](O[C@@H]3[C@@H](OC(C)=O)[C@H](O[C@H]4C[C@H]5[C@@H]6CC=C7C[C@@H](O)CC[C@]7(C)[C@H]6CC[C@]5(C)[C@@]4(O)[C@H](C)C(=O)CCC(C)C)OC[C@@H]3O)OC[C@@H](O)[C@@H]2O)cc1 [OSW-1]
HCT-116 p21−/−
  sensitization by OSBP knockdown: sensitizes
HCT-116 p21−/−, OSBP knockdown by 84%
  sensitization (GI50 shift) by OSBP knockdown: 5.6 fold
OSBP knockdown by 84%, read-out: GI50 in HCT-116 p21−/− after shRNA knockdown of OSBP
  GI50: 0.04 nM
non-targeting shRNA, read-out: GI50 in HCT-116 p21−/− shNT cells
  GI50: 0.23 nM
